Our source for the IC50 values is ChEMBL document CHEMBL5346973 (J Med Chem, 2023).

Molecules are shown by their SMILES. Where a SMILES comes first, the peptide text is derived from it.

Assay [1] concerns the target Nicotinic acetylcholine receptor alpha9/alpha10 (Rattus norvegicus, UniProt P43144+Q9JLB5). Briefly: Antagonist activity at rat alpha9alpha10 nACh receptor expressed in Xenopus oocyte assessed as inhibition of acetylcholine-induced response at -70 mV holding potential by voltage-clamp based electrophysiological assay. It counts as cell-based.
Assay [2] has as its target Neuronal acetylcholine receptor subunit alpha-7 (Rattus norvegicus, UniProt Q05941). Briefly: Antagonist activity at rat alpha7 nACh receptor expressed in Xenopus oocyte assessed as inhibition of acetylcholine-induced response at -70 mV holding potential by voltage-clamp based electrophysiological assay. It counts as cell-based.

Sequence of Nicotinic acetylcholine receptor alpha9/alpha10 (P43144 whole entry): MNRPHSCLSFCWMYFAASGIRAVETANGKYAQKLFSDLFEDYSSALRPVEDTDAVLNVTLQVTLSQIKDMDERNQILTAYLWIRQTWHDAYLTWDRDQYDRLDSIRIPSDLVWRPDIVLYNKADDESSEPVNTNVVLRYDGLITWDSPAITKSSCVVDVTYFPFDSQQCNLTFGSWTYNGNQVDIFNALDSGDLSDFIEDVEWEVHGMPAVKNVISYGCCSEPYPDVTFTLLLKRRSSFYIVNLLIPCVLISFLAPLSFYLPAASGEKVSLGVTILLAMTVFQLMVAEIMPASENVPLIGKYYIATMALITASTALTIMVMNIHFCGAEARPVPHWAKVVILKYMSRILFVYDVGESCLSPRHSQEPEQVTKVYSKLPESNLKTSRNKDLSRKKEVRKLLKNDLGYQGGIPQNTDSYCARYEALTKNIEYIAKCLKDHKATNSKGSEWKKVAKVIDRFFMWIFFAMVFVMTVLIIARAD
Sequence of Nicotinic acetylcholine receptor alpha9/alpha10 (Q9JLB5 whole entry): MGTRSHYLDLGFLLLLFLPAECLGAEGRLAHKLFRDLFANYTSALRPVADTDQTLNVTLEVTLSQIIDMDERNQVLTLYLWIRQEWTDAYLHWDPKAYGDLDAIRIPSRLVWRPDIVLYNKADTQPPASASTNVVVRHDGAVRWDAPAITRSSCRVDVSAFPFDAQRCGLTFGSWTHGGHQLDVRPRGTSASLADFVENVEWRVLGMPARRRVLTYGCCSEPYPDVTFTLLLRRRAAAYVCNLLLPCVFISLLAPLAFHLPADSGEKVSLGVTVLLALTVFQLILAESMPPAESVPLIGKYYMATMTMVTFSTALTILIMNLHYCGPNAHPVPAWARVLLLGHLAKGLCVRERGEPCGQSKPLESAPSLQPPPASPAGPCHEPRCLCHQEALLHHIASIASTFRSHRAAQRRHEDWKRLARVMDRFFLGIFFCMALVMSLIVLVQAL
Sequence of Neuronal acetylcholine receptor subunit alpha-7 (Q05941 whole entry): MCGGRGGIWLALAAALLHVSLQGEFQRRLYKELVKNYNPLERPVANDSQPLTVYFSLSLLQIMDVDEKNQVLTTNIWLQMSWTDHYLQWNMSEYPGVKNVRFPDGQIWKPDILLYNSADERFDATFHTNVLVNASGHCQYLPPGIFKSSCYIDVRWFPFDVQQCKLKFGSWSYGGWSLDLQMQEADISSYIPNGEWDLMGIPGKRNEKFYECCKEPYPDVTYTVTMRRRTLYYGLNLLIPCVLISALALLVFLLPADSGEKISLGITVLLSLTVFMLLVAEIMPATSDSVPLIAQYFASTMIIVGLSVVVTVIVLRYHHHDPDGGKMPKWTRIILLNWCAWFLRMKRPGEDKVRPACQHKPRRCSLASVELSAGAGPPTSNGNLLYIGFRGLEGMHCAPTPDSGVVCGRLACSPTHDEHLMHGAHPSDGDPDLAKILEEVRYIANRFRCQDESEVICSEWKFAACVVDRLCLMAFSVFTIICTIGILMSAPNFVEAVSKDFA

Usually IC50 stands for the concentration needed to halve the response being measured. Take `CC[C@H](C)[C@@H]1NC(=O)[C@H](CCCNC(=N)N)NC(=O)[C@H](CCCNC(=N)N)NC(=O)[C@@H]2CSSC[C@H](NC(=O)[C@H](Cc3ccc(O)cc3)NC(=O)[C@H](CCCNC(=N)N)NC(=O)CNC(=O)[C@H](CO)NC(=O)[C@H](CO)NC(=O)[C@H](CCCNC(=N)N)NC(=O)[C@@H](NC(=O)[C@@H](N)[C@@H](C)O)CSSC[C@@H](C(=O)N[C@H](C(=O)O)C(C)C)NC(=O)[C@H](C)NC(=O)[C@H](CC(=O)O)NC(=O)[C@H]([C@@H](C)O)NC1=O)C(=O)N[C@@H](CCCNC(=N)N)C(=O)N[C@@H](C)C(=O)N1CCC[C@H]1C(=O)N[C@@H](Cc1ccc(O)cc1)C(=O)N[C@@H](CC(=O)O)C(=O)N[C@@H](CCCNC(=N)N)C(=O)N[C@@H](CCCNC(=N)N)C(=O)N[C@@H](CCCNC(=N)N)C(=O)N[C@@H](CCCNC(=N)N)C(=O)N[C@@H](Cc1ccc(O)cc1)C(=O)N2` (HELM PEPTIDE1{T.C.R.S.S.G.R.Y.C.R.A.P.Y.D.R.R.R.R.Y.C.R.R.I.T.D.A.C.V}$PEPTIDE1,PEPTIDE1,2:R3-27:R3|PEPTIDE1,PEPTIDE1,9:R3-20:R3$$$V2.0): the IC50 in assay [1] is 10 nM; in assay [2], 5600 nM.
With `CC[C@H](C)[C@@H]1NC(=O)[C@H](CCCNC(=N)N)NC(=O)[C@H](CCCNC(=N)N)NC(=O)[C@@H](NC(=O)[C@H](Cc2ccc(O)cc2)NC(=O)[C@H](CCCNC(=N)N)NC(=O)[C@H](CCCNC(=N)N)NC(=O)[C@H](CCCNC(=N)N)NC(=O)[C@H](C)NC(=O)[C@H](CC(=O)O)NC(=O)[C@H](Cc2ccc(O)cc2)NC(=O)[C@@H]2CCCN2C(=O)[C@H](CO)NC(=O)[C@H](CCCNC(=N)N)NC(=O)[C@@H]2CSSC[C@H](NC(=O)[C@H](N)[C@H](C)O)C(=O)N[C@@H](CCCNC(=N)N)C(=O)N[C@@H](CO)C(=O)N[C@@H](CO)C(=O)NCC(=O)N[C@@H](CCCNC(=N)N)C(=O)N[C@@H](Cc3ccc(O)cc3)C(=O)N2)CSSC[C@@H](C(=O)N[C@H](C(=O)O)C(C)C)NC(=O)[C@H](C)NC(=O)[C@H](CC(=O)O)NC(=O)[C@H]([C@@H](C)O)NC1=O`, the results for the IC50 in assay [1] and in assay [2] were 32 nM and 3280 nM, respectively.
As to `CC[C@H](C)[C@@H]1NC(=O)[C@H](CCCNC(=N)N)NC(=O)[C@H](CCCNC(=N)N)NC(=O)[C@@H]2CSSC[C@H](NC(=O)[C@H](Cc3ccc(O)cc3)NC(=O)[C@H](CCCNC(=N)N)NC(=O)CNC(=O)[C@H](CO)NC(=O)[C@H](CO)NC(=O)[C@H](CCCNC(=N)N)NC(=O)[C@@H](NC(=O)[C@@H](N)[C@@H](C)O)CSSC[C@@H](C(=O)N[C@H](C(=O)O)C(C)C)NC(=O)[C@H](C)NC(=O)[C@H](CC(=O)O)NC(=O)[C@H]([C@@H](C)O)NC1=O)C(=O)N[C@@H](CCCNC(=N)N)C(=O)N[C@@H](CO)C(=O)N1CCC[C@H]1C(=O)N[C@@H](Cc1ccc(O)cc1)C(=O)N[C@@H](CC(=O)O)C(=O)N[C@@H](C)C(=O)N[C@@H](CCCNC(=N)N)C(=O)N[C@@H](CCCNC(=N)N)C(=O)N[C@@H](CCCNC(=N)N)C(=O)N[C@@H](Cc1ccc(O)cc1)C(=O)N2`, the IC50 in assay [1] came to 34 nM; in assay [2], 6440 nM.
On to `CC[C@H](C)[C@@H]1NC(=O)[C@H](CCCNC(=N)N)NC(=O)[C@H](CCCNC(=N)N)NC(=O)[C@@H](NC(=O)[C@H](Cc2ccc(O)cc2)NC(=O)[C@H](CCCNC(=N)N)NC(=O)[C@H](CCCNC(=N)N)NC(=O)[C@H](CCCNC(=N)N)NC(=O)[C@H](CCCNC(=N)N)NC(=O)[C@H](CC(=O)O)NC(=O)[C@H](Cc2ccc(O)cc2)NC(=O)[C@@H]2CCCN2C(=O)[C@H](CO)NC(=O)[C@H](CCCNC(=N)N)NC(=O)[C@@H]2CSSC[C@H](NC(=O)[C@@H](N)[C@@H](C)O)C(=O)N[C@@H](CCCNC(=N)N)C(=O)N[C@@H](CO)C(=O)N[C@@H](CO)C(=O)NCC(=O)N[C@@H](C)C(=O)N[C@@H](Cc3ccc(O)cc3)C(=O)N2)CSSC[C@@H](C(=O)N[C@H](C(=O)O)C(C)C)NC(=O)[C@H](C)NC(=O)[C@H](CC(=O)O)NC(=O)[C@H]([C@@H](C)O)NC1=O` (HELM PEPTIDE1{T.C.R.S.S.G.A.Y.C.R.S.P.Y.D.R.R.R.R.Y.C.R.R.I.T.D.A.C.V}$PEPTIDE1,PEPTIDE1,2:R3-9:R3|PEPTIDE1,PEPTIDE1,20:R3-27:R3$$$V2.0), for which the IC50 in assay [1] is 44 nM; in assay [2] it was 1470 nM.
For `CC[C@H](C)[C@@H]1NC(=O)[C@H](CCCNC(=N)N)NC(=O)[C@H](CCCNC(=N)N)NC(=O)[C@@H](NC(=O)[C@H](Cc2ccc(O)cc2)NC(=O)[C@H](CCCNC(=N)N)NC(=O)[C@H](CCCNC(=N)N)NC(=O)[C@H](CCCNC(=N)N)NC(=O)[C@H](CCCNC(=N)N)NC(=O)[C@H](CC(=O)O)NC(=O)[C@H](Cc2ccc(O)cc2)NC(=O)[C@@H]2CCCN2C(=O)[C@@H](CO)NC(=O)[C@H](C)NC(=O)[C@@H]2CSSC[C@H](NC(=O)[C@@H](N)[C@@H](C)O)C(=O)N[C@@H](CCCNC(=N)N)C(=O)N[C@@H](CO)C(=O)N[C@@H](CO)C(=O)NCC(=O)N[C@@H](CCCNC(=N)N)C(=O)N[C@@H](Cc3ccc(O)cc3)C(=O)N2)CSSC[C@@H](C(=O)N[C@H](C(=O)O)C(C)C)NC(=O)[C@H](C)NC(=O)[C@H](CC(=O)O)NC(=O)[C@H]([C@@H](C)O)NC1=O` the same measures were 71 nM and 1910 nM.
Turning to `CC[C@H](C)[C@@H]1NC(=O)[C@H](CCCNC(=N)N)NC(=O)[C@H](CCCNC(=N)N)NC(=O)[C@@H](NC(=O)[C@H](Cc2ccc(O)cc2)NC(=O)[C@H](CCCNC(=N)N)NC(=O)[C@H](CCCNC(=N)N)NC(=O)[C@H](CCCNC(=N)N)NC(=O)[C@H](CCCNC(=N)N)NC(=O)[C@H](CC(=O)O)NC(=O)[C@H](Cc2ccc(O)cc2)NC(=O)[C@@H]2CCCN2C(=O)[C@H](CO)NC(=O)[C@H](CCCNC(=N)N)NC(=O)[C@@H]2CSSC[C@H](NC(=O)[C@@H](N)[C@@H](C)O)C(=O)N[C@@H](CCCNC(=N)N)C(=O)N[C@@H](CO)C(=O)N[C@@H](CO)C(=O)NCC(=O)N[C@@H](CCCNC(=N)N)C(=O)N[C@@H](C)C(=O)N2)CSSC[C@@H](C(=O)N[C@H](C(=O)O)C(C)C)NC(=O)[C@H](C)NC(=O)[C@H](CC(=O)O)NC(=O)[C@H]([C@@H](C)O)NC1=O` (HELM PEPTIDE1{T.C.R.S.S.G.R.A.C.R.S.P.Y.D.R.R.R.R.Y.C.R.R.I.T.D.A.C.V}$PEPTIDE1,PEPTIDE1,2:R3-9:R3|PEPTIDE1,PEPTIDE1,20:R3-27:R3$$$V2.0), the concentration for half-maximal inhibition (IC50) in assay [1] is 10 nM; in assay [2] it was 1700 nM.
In the same order, the values of `CC[C@H](C)[C@@H]1NC(=O)[C@H](CCCNC(=N)N)NC(=O)[C@H](CCCNC(=N)N)NC(=O)[C@@H](NC(=O)[C@H](Cc2ccc(O)cc2)NC(=O)[C@H](CCCNC(=N)N)NC(=O)[C@H](CCCNC(=N)N)NC(=O)[C@H](CCCNC(=N)N)NC(=O)[C@H](CCCNC(=N)N)NC(=O)[C@H](CC(=O)O)NC(=O)[C@H](Cc2ccc(O)cc2)NC(=O)[C@@H]2CCCN2C(=O)[C@H](CO)NC(=O)[C@H](CCCNC(=N)N)NC(=O)[C@@H]2CSSC[C@H](NC(=O)[C@@H](N)[C@@H](C)O)C(=O)N[C@@H](CCCNC(=N)N)C(=O)N[C@@H](CO)C(=O)N[C@@H](CO)C(=O)NCC(=O)N[C@@H](CCCNC(=N)N)C(=O)N[C@@H](Cc3ccc(O)cc3)C(=O)N2)CSSC[C@@H](C(=O)N[C@H](C(=O)O)C(C)C)NC(=O)[C@H](C)NC(=O)[C@H](CC(=O)O)NC(=O)[C@H](C)NC1=O` are 21 nM and 650 nM.
`CC[C@H](C)[C@@H]1NC(=O)[C@H](CCCNC(=N)N)NC(=O)[C@H](CCCNC(=N)N)NC(=O)[C@@H](NC(=O)[C@H](Cc2ccc(O)cc2)NC(=O)[C@H](CCCNC(=N)N)NC(=O)[C@H](CCCNC(=N)N)NC(=O)[C@H](CCCNC(=N)N)NC(=O)[C@H](CCCNC(=N)N)NC(=O)[C@H](CC(=O)O)NC(=O)[C@H](Cc2ccc(O)cc2)NC(=O)[C@@H]2CCCN2C(=O)[C@H](CO)NC(=O)[C@H](CCCNC(=N)N)NC(=O)[C@@H]2CSSC[C@H](NC(=O)[C@@H](N)[C@@H](C)O)C(=O)N[C@@H](CCCNC(=N)N)C(=O)N[C@@H](CO)C(=O)N[C@@H](CO)C(=O)NCC(=O)N[C@@H](CCCNC(=N)N)C(=O)N[C@@H](Cc3ccc(O)cc3)C(=O)N2)CSSC[C@@H](C(=O)N[C@H](C(=O)O)C(C)C)NC(=O)[C@H](C)NC(=O)[C@@H](C)NC(=O)[C@H]([C@@H](C)O)NC1=O`: the values for the IC50 in assay [1] and in assay [2] were 13 nM and 6690 nM, respectively.
Consider `CC[C@H](C)[C@@H]1NC(=O)[C@H](CCCNC(=N)N)NC(=O)[C@H](CCCNC(=N)N)NC(=O)[C@@H](NC(=O)[C@H](Cc2ccc(O)cc2)NC(=O)[C@H](CCCNC(=N)N)NC(=O)[C@H](CCCNC(=N)N)NC(=O)[C@H](C)NC(=O)[C@H](CCCNC(=N)N)NC(=O)[C@H](CC(=O)O)NC(=O)[C@H](Cc2ccc(O)cc2)NC(=O)[C@@H]2CCCN2C(=O)[C@H](CO)NC(=O)[C@H](CCCNC(=N)N)NC(=O)[C@@H]2CSSC[C@H](NC(=O)[C@@H](N)[C@@H](C)O)C(=O)N[C@@H](CCCNC(=N)N)C(=O)N[C@@H](CO)C(=O)N[C@@H](CO)C(=O)NCC(=O)N[C@@H](CCCNC(=N)N)C(=O)N[C@@H](Cc3ccc(O)cc3)C(=O)N2)CSSC[C@@H](C(=O)N[C@H](C(=O)O)C(C)C)NC(=O)[C@H](C)NC(=O)[C@H](CC(=O)O)NC(=O)[C@H]([C@@H](C)O)NC1=O`, for which the figures for the half-inhibitory concentration (IC50) in assay [1] and in assay [2] were 18 nM and 3780 nM, respectively.
Consider `CC[C@H](C)[C@@H]1NC(=O)[C@H](CCCNC(=N)N)NC(=O)[C@H](CCCNC(=N)N)NC(=O)[C@@H]2CSSC[C@H](NC(=O)[C@H](Cc3ccc(O)cc3)NC(=O)[C@H](CCCNC(=N)N)NC(=O)CNC(=O)[C@H](CO)NC(=O)[C@H](CO)NC(=O)[C@H](CCCNC(=N)N)NC(=O)[C@@H](NC(=O)[C@@H](N)[C@@H](C)O)CSSC[C@@H](C(=O)N[C@H](C(=O)O)C(C)C)NC(=O)[C@H](C)NC(=O)[C@H](CC(=O)O)NC(=O)[C@H]([C@@H](C)O)NC1=O)C(=O)N[C@@H](CCCNC(=N)N)C(=O)N[C@@H](CO)C(=O)N1CCC[C@H]1C(=O)N[C@@H](C)C(=O)N[C@@H](CC(=O)O)C(=O)N[C@@H](CCCNC(=N)N)C(=O)N[C@@H](CCCNC(=N)N)C(=O)N[C@@H](CCCNC(=N)N)C(=O)N[C@@H](CCCNC(=N)N)C(=O)N[C@@H](Cc1ccc(O)cc1)C(=O)N2` (HELM PEPTIDE1{T.C.R.S.S.G.R.Y.C.R.S.P.A.D.R.R.R.R.Y.C.R.R.I.T.D.A.C.V}$PEPTIDE1,PEPTIDE1,2:R3-27:R3|PEPTIDE1,PEPTIDE1,9:R3-20:R3$$$V2.0), for which the IC50 was found to be 20 nM in assay [1] and 4680 nM in assay [2].
